Molecular target: Leucine-rich repeat serine/threonine-protein kinase 2 (Homo sapiens, UniProt Q5S007)
Assay: LRRK2 Kinase Activity Assay
Method: LRRK2 Kinase reactions were carried out in 384-well white polystyrene plates in a final volume of 6 μl using ADP-Glo Kinase Assay kit (Promega Corp.). Compound and substrates (LRRKtide peptide and ATP) in assay buffer were first dispensed in wells. Kinase reaction was then started by the addition of human recombinant LRRK2 protein. After 1h-incubation at 37 C., the enzymatic reaction was stopped by the addition of 6 μl of ADP-Glo Reagent-1 and an additional 40-minutes incubation at 23 C. (residual ATP depletion). A final 30-minutes incubation after 12 μL reagent-2 addition (ADP to ATP conversion and luciferin/luciferase reaction) was performed before luminescent signal acquisition (EnVision multimode plate reader-PerkinElmer, Inc.). Data from 10 individual concentrations of tested compounds (N=2) were fitted (XLfit -ID Business Solutions Ltd) to deliver IC50s (compound concentration leading to 50% inhibition of reference enzymatic activity).

Sequence of Leucine-rich repeat serine/threonine-protein kinase 2 (Q5S007 whole entry): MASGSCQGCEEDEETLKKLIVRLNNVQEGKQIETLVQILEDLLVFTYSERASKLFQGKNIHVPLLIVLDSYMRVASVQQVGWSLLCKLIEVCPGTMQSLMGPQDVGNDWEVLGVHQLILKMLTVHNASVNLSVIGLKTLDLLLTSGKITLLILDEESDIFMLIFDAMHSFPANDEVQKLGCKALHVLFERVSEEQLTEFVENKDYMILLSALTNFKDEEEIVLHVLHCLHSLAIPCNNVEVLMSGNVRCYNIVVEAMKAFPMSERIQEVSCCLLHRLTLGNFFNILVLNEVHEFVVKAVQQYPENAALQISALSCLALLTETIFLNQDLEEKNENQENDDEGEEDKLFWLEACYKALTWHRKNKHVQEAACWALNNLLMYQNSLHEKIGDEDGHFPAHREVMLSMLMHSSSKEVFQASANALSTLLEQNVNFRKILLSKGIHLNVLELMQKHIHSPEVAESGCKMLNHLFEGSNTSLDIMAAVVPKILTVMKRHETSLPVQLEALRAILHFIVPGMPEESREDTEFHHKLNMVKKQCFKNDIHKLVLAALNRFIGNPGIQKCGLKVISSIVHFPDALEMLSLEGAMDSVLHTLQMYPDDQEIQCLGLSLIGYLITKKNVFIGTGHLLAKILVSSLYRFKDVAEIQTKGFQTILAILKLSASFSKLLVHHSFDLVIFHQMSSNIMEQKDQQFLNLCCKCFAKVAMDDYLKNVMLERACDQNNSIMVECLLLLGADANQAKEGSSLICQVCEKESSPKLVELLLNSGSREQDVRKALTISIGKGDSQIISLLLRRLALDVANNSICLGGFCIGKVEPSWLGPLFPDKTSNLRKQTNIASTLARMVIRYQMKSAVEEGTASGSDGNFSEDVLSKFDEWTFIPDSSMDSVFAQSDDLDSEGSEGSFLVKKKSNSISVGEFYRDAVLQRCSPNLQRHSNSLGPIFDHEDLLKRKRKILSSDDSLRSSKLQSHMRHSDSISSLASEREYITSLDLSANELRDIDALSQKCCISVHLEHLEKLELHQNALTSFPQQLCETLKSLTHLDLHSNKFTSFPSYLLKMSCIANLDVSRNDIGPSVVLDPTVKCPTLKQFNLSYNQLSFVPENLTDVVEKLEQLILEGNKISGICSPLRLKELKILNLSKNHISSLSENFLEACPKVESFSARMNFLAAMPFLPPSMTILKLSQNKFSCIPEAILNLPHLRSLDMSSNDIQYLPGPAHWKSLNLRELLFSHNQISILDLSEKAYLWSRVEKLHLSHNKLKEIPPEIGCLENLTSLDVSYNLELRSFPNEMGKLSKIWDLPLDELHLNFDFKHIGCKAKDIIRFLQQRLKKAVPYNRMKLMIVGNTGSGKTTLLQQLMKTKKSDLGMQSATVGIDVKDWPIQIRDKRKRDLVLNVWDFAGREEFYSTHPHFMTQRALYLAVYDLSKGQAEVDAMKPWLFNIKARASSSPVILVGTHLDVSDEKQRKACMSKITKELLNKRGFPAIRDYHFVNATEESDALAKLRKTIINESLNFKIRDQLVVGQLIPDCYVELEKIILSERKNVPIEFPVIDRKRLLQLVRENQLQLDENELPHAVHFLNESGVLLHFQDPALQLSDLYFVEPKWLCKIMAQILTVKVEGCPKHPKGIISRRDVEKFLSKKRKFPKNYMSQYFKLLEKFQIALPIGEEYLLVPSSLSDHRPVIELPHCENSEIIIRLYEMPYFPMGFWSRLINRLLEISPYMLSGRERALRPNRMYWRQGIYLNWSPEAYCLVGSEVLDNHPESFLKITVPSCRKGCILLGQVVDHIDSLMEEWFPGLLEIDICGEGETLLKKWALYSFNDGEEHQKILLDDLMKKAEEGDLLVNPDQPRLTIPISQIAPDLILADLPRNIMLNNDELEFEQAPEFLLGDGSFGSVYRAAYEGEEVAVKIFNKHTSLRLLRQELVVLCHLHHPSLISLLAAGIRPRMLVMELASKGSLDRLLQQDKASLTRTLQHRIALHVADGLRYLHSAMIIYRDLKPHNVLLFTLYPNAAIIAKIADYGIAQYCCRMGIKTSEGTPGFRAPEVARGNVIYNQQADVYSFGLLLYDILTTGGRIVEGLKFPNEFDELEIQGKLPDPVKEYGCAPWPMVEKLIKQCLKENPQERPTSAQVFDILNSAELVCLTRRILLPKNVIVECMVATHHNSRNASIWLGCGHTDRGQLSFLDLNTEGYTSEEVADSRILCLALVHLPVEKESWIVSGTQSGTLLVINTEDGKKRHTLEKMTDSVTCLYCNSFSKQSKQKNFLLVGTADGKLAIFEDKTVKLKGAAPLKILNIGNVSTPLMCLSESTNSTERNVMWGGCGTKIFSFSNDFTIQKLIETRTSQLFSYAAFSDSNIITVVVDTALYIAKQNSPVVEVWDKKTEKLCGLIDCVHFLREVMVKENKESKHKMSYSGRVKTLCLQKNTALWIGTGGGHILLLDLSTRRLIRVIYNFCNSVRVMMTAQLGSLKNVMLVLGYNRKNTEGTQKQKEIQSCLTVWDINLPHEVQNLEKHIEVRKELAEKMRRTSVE

Structure (SMILES)	IC50
O=C1NCCCOc2ccc3[nH]nc(c3c2)-c2cc(Br)cc(c2)CO1 [US20230357269, Example 9]	< 0.01 µM
O=C1NCCCOc2ccc3[nH]nc(c3c2)-c2ccc(Br)c(c2)CO1 [US20230357269, Example 30]	< 0.01 µM

— BindingDB's records for patent US20230357269 (Les Laboratoires Servier, 2023)
